# Where “and” joins values, the source holds several entries; their conditions need not be identical. Equal values may be shown once. Read-outs that look alike come from different tables or passages of the source.
# How the values were obtained:
# [1] = molecular target: Tyrosine-protein phosphatase non-receptor type 11 (Homo sapiens, UniProt Q06124); test: Phosphatase panel, DiFMUP fluorescence assay; format: biochemical
# [2] = Weight gain in growing male mice (about 25 grams); format: in vivo; conditions: similar dosing regimen, FIG. 2
# Description: In a second experiment, growing male mice, about 25 grams, were administered either compound following a similar dosing regimen. As in the previous experiment, both compounds affected weight gain.
# [3] = Weight loss in ad lib fed mice (about 50 grams), i.p. every other day; format: in vivo, male Swiss Webster mice; conditions: i.p. 10 mg/kg every other day, food ad lib
# Description: Food was provided ad lib.
# By 27 days both sets of treated mice had lost about 10% of their starting body weight.
# [4] = tested on: PS19 mice; test: Morris water maze, tau Alzheimer's model; format: in vivo; conditions: 2.5 mg/kg/wk i.p. over 6 weeks, vs vehicle treated littermates
# Description: The Morris water maze was used to test the effect of ENT-03 on spatial learning and memory deficits in 2 mouse models of familial Alzheimer's disease, hAPP-J20 mice that express a double mutant of the human amyloid precursor protein (Mucke et al., 2000), and PS19 mice that express the P301S mutant of the human microtubule associated protein tau (Yoshiyama et al., 2007).
# hAPP-J20 mice expressing human APP bearing the Swedish and Indiana familial mutations (B6.Cg-Zbtb20Tg(PDGFB-APPSwInd)20Lms/2Mmjax, (Mucke et al., 2000)) and PS19 mice expressing the P301S mutation of human tau protein (B6;C3-Tg(Prnp-MAPT*P301S)PS19Vle/J (Yoshiyama et al., 2007)) were purchased from Jackson laboratories and maintained as colonies in the animal facility of the University of Ottawa. Heterozygous hAPP-J20 and PS19 mice were used. Genotypes were verified by PCR using genomic DNA isolated from tail or ear biopsies. […]
# The Morris water maze test to analyze the ability of mice to learn and remember the location of a submerged platform in a pool containing opaque water was conducted in the Faculty of Medicine Behavior Core Laboratory at the University of Ottawa. […] On the probe day, crossings of the platform area and target quadrant were counted and swimming speed was measured using Ethovision automated video tracking software (Noldus).
# [5] = Pharmacokinetic profile, intravenous administration; format: in vivo, male SD Rats; conditions: I.V. 5 mg/kg, plasma; for MRT inf: read-out: MRTInf_obs
# Description: The objective of this example was to determine the pharmacokinetic profile of ENT-03 (Compound III) via intravenous and oral administration in male SD Rats.
# Animal feeding control: Animals were food fasted overnight prior to dosing and fed 4 hours after administration having free access to water.
# PK Sample Analyses: Concentrations of ENT-03 (Compound III) in the plasma and dose samples were analyzed using a LC-MS/MS method. WinNonlin (Phoenix™, version 6.1) or other similar software was used for pharmacokinetic calculations. The following pharmacokinetic parameters were calculated, whenever possible from the plasma concentration versus time data.
# IV Bolus administration: T1/2, C0, AUClast, AUCinf, MRTinf, Cl, Vss, Number of Points for Regression.
# The pharmacokinetic data was described using descriptive statistics such as mean and standard deviation. All the residual biological samples were retained in the freezer ([…]) for a period of 6 months after testing.
# [6] = molecular target: T1, PTPN6/SHP1 (Homo sapiens, UniProt P29350); test: Phosphatase panel, DiFMUP fluorescence assay; format: biochemical
# T1 construct: purchased Recation Biology Inc
# T1 sequence (P29350 whole entry): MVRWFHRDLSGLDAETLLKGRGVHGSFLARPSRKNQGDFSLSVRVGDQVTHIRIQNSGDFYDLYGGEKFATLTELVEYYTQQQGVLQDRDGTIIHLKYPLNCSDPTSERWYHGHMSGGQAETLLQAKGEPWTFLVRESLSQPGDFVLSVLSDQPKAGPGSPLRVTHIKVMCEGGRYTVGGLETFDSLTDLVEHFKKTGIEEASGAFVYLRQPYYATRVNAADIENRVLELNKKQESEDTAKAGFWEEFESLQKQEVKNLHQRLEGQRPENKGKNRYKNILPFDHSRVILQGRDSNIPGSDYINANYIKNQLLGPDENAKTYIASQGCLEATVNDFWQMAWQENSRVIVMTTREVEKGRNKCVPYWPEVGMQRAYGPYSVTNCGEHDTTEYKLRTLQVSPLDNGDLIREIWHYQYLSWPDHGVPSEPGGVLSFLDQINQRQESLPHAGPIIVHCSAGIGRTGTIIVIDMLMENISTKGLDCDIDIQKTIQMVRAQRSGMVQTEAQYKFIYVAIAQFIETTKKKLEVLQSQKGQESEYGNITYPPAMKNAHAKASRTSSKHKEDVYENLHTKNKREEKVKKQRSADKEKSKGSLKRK
# [7] = Mouse weight after deuterated ENT-03 i.p. (FIG. 12); format: in vivo; conditions: i.p. to mice
# Description: The presence of the deuterium on the side chain likely slows the action of the 2-methylacyl-coenzyme A racemase on C-25, the subsequent action of the dehydrogenase that produces the 24,25-trans-unsaturated derivative by removing the deuterium atoms at C24 and C25, and the subsequent hydration and oxidation at the C24 bond catalyzed by the D-bifunctional protein. Instead, the metabolism of ENT-03D3 will begin with the oxidation at C24 by CYP46A1, yielding the following compound: […]
# [8] = molecular target: T2, PTPN2/TC-PTP (Homo sapiens, UniProt P17706); test: Phosphatase panel, DiFMUP fluorescence assay; format: biochemical
# T2 construct: purchased Recation Biology Inc
# T2 sequence (P17706 1-415): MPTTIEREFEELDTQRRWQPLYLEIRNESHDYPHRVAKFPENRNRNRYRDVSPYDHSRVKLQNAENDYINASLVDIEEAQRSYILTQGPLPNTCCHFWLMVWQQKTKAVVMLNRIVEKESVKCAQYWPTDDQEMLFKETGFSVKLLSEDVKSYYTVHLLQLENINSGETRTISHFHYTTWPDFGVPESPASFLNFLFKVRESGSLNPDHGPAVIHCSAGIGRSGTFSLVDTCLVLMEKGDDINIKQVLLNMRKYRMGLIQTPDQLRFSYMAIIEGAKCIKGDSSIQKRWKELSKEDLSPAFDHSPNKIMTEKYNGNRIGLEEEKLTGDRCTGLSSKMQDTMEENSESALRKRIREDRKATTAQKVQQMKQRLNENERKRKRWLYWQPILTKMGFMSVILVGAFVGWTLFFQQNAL
# [9] = individual rats (Rat 1-3), listed as ENT-03 (Compound III), 5 mg/kg
# [10] = male, SD, rat, iv, 5 mg/kg, Mean
# [11] = male, SD, rat, iv, 5 mg/kg, individual rats (Rat 1-3)
# [12] = Table 19A, read-out: inhibitory activity PTPN6/SHP1
# [13] = Table 19B, read-out: inhibitory activity PTPN2/TC-PTP
# Chain of Tyrosine-protein phosphatase non-receptor type 11 (Q06124 247-517): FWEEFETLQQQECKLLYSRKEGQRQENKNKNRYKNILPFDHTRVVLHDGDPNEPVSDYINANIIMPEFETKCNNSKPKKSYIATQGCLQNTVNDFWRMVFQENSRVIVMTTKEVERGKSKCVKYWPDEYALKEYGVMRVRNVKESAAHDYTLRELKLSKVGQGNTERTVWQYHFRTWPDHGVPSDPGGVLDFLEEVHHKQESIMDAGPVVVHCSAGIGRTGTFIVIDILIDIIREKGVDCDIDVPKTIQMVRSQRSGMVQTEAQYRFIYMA
smiles,measurement,setting,value
"CC(C)[C@@H](CC[C@@H](C)[C@H]1CC[C@H]2[C@@H]3[C@H](O)C[C@H]4C[C@@H](NCCCNCCCCNCCCN)CC[C@]4(C)[C@H]3CC[C@]12C)OS(=O)(=O)O (single isomer, unassigned) [ENT-02 (MSI-1436), trodusquemine]",IC50,[1],0.375 µM
same,effect on growth / weight gain,[2],suppressed growth as well as having induced consumption of body fat
same,effect on weight,[3],more severe decline
"CC(CCC[C@@H](C)[C@H]1CCC2C3C(CC[C@@]21C)[C@@]1(C)CC[C@H](NCCCNCCCCNCCCN)C[C@@H]1C[C@H]3O)C(=O)O (single isomer, unassigned) [ENT-03]",learning during the training phase,[4],improved
same,memory on the probe day,[4],improved
same,AUC_%Extrap_obs,[5]; Mean,38.2%
same,AUClast/D,[5]; Mean,122000 h·ng/mL per mg/kg
same,Cl_obs,[5]; Mean,5.1 mL/h/kg
same,Vss_obs,[5]; Mean,0.125 L/kg
same,AUCInf,[5]; [9],941.13 µg·h/mL and 1095.763 µg·h/mL
same,AUC_%Extrap_obs,[5]; [9],39.6% and 35.4% and 39.7%
same,AUClast,[5]; [9],608.321 µg·h/mL and 661.154 µg·h/mL
same,AUClast/D,[5]; [9],112000 h·ng/mL per mg/kg and 122000 h·ng/mL per mg/kg and 132000 h·ng/mL per mg/kg
same,C0,[5]; [9],102.409 µg/mL and 76.2 µg/mL
same,Cl_obs,[5]; [9],5.42 mL/h/kg and 5.31 mL/h/kg and 4.57 mL/h/kg
same,MRTInf_obs,[5]; [9],22.9 h and 25.5 h
same,T1/2,[5]; [9],17.5 h and 18.6 h
same,Vss_obs,[5]; [9],0.137 L/kg and 0.122 L/kg and 0.116 L/kg
same,AUC(0-inf),[5]; [10],986 µg·h/mL
same,AUC(0-t),[5]; [10],609 µg·h/mL
same,half-life,[5]; [10],18.2 h
same,C0,"[5]; male, SD, rat, iv, 5 mg/kg, Mean, read-out: C0",86.3 µg/mL
same,MRT inf,[5]; [10],24.6 h
same,AUC(0-inf),[5]; [11],922 µg·h/mL
same,AUC(0-t),[5]; [11],558 µg·h/mL
same,half-life,[5]; [11],18.6 h
same,C0,"[5]; male, SD, rat, iv, 5 mg/kg, individual rats (Rat 1-3), read-out: C0",80.4 µg/mL
same,MRT inf,[5]; [11],25.3 h
same,IC50,[1],5 µM
same,effect on growth / weight gain,[2],continued normal growth
same,activity at PTPN6,[6],inactive
same,IC50,"[6]; Table 5B, read-out: Compound IC50 (M) PTPN6/SHP1",> 0.0001 M
same,IC50,[6]; [12],> 0.0001 M
same,effect on weight,[7],loss of weight
same,effect on weight,[3],weight loss with kinetics similar to that seen following administration of ENT-02
same,gradual recovery to the starting weight by,[3],~45 days
same,nadir of weight decrease,[3],~16 days
same,starting body weight lost by 27 days,[3],about 10%
same,activity at PTPN2,[8],inactive
same,IC50,"[8]; Table 5C, read-out: Compound IC50 (M) PTPN2/TC-PTP",> 0.0001 M
same,IC50,[8]; [13],> 0.0001 M
"CC(CCC[C@@H](C)[C@H]1CCC2C3C(CC(O)[C@@]21C)[C@@]1(C)CC[C@H](NCCCNCCCCN)C[C@@H]1C[C@H]3O)C(=O)O (single isomer, unassigned) [ENT-05]",IC50,"[6]; Table 18A, read-out: inhibitory activity PTPN6/SHP1",> 0.0001 M
same,IC50,"[8]; Table 18B, read-out: inhibitory activity PTPN2/TC-PTP",> 0.0001 M
"CC(CCC[C@@H](C)[C@H]1CCC2C3C(CC[C@@]21C)[C@@]1(C)CC[C@H](NCCCNCCCCN)C[C@@H]1C[C@H]3O)C(=O)O (single isomer, unassigned) [ENT-06]",IC50,[6]; [12],> 0.0001 M
same,IC50,[8]; [13],> 0.0001 M

# — patent US20250228873A1, “C25 R AND S ISOMERS OF AMINOSTEROLS AND METHODS OF MAKING AND USING THE SAME” (Enterin, Inc., priority 2022, published 2025)
